The values below come from ChEMBL document CHEMBL3351286, “Strategies to inhibit tumor associated integrin receptors: rationale for dual and multi-antagonists” (J Med Chem, 2014).

Assay [1] has as its target Integrin alpha2/beta1 (Homo sapiens, UniProt P05556+P17301). The assay can be described thus: Antagonist activity at alpha2beta1 integrin receptor (unknown origin) by cell-free ELISA. In kind it is protein-complex assay. Background: In an ELISA, binding on a coated surface is turned into a signal by an enzyme label.
The target in assay [2] is Integrin alpha-V/beta-1 (Homo sapiens, UniProt P05556+P06756). The assay can be described thus: Antagonist activity at alphavbeta1 integrin receptor (unknown origin) by cell-free ELISA. It counts as protein-complex assay.
Assay [3] deals with Integrin alpha-10/Integrin beta-1 (Homo sapiens, UniProt O75578+P05556). The assay can be described thus: Antagonist activity at alpha10beta1 integrin receptor (unknown origin) by cell-free ELISA. In kind it is protein-complex assay.
Assay [4] deals with Integrin alpha-V/beta-8 (Homo sapiens, UniProt P06756+P26012). The assay can be described thus: Antagonist activity at alphavbeta8 integrin receptor (unknown origin) by cell-free ELISA. It counts as protein-complex assay.
Assay [5] deals with Integrin alpha-IIb/beta-3 (Homo sapiens, UniProt P05106+P08514). The assay can be described thus: Antagonist activity at alpha2bbeta3 integrin receptor (unknown origin) by cell-free ELISA. In kind it is protein-complex assay.
For assay [6], the target named is T1, Integrin alpha-V/beta-5 (Homo sapiens, UniProt P06756+P18084). The assay can be described thus: Antagonist activity at alphavbeta5 integrin receptor (unknown origin) by cell-based ELISA.
Assay [7] concerns the target T1, Integrin alpha-V/beta-5. The assay can be described thus: Antagonist activity at alphavbeta5 integrin receptor (unknown origin) by cell-free ELISA. It counts as protein-complex assay.
For assay [8], the target named is Integrin alpha-V/beta-6 (Homo sapiens, UniProt P06756+P18564). The assay can be described thus: Antagonist activity at alphavbeta6 integrin receptor (unknown origin) by cell-free ELISA. It counts as protein-complex assay.
Assay [9] has as its target Integrin alpha-V/beta-3 (Homo sapiens, UniProt P05106+P06756). The assay can be described thus: Antagonist activity at alphavbeta3 integrin receptor (unknown origin) by cell-free ELISA. It counts as protein-complex assay.
The target in assay [10] is T2, Integrin alpha-4/beta-7 (Homo sapiens, UniProt P13612+P26010).
T2 sequence (P13612 whole entry): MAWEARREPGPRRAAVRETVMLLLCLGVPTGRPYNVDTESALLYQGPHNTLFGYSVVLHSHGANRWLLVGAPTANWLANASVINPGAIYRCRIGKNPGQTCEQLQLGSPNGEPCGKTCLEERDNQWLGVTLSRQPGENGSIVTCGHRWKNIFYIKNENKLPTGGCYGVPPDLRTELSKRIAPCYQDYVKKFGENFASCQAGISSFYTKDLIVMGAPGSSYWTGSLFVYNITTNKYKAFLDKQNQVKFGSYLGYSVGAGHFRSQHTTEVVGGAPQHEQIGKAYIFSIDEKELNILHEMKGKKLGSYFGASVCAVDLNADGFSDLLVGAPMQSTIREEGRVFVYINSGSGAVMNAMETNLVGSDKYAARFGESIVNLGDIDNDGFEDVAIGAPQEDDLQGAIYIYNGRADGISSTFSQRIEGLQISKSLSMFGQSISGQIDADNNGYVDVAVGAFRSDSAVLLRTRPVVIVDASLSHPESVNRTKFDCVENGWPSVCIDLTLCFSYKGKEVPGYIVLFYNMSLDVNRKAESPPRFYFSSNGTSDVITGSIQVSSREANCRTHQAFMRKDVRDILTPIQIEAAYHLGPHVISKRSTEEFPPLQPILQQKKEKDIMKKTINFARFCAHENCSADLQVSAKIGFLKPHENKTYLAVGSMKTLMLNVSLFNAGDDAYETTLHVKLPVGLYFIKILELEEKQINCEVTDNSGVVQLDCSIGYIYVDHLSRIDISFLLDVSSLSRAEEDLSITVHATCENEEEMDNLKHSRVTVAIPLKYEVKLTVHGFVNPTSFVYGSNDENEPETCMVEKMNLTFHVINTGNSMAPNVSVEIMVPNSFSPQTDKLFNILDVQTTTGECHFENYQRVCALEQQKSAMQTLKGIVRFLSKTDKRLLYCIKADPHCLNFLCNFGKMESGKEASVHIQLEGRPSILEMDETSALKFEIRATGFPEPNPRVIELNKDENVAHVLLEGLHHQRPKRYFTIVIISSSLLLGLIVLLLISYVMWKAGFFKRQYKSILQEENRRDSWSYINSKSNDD
T2 sequence (P26010 whole entry): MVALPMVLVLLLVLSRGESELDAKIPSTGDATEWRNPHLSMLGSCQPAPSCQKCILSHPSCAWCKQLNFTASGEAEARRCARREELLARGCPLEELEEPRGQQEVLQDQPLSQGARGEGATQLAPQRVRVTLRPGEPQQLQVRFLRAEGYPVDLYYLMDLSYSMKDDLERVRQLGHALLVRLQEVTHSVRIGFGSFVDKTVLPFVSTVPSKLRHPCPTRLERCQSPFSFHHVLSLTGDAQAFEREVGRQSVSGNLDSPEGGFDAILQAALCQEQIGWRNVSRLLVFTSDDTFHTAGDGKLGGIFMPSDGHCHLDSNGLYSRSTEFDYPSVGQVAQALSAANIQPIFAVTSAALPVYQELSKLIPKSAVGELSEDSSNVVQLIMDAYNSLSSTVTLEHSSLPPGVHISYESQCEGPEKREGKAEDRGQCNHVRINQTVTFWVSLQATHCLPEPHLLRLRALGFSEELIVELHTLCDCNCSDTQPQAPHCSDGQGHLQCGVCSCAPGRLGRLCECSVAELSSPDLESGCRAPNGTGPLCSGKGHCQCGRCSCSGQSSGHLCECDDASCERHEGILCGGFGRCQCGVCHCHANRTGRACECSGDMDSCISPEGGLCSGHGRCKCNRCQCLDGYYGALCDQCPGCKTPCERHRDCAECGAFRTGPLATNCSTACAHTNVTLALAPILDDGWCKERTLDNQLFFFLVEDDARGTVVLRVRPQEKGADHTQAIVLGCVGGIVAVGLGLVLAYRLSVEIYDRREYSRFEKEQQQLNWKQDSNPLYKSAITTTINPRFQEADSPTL
The assay can be described thus: Antagonist activity at alpha4beta7 integrin receptor (unknown origin) by cell-free ELISA. It counts as protein-complex assay.

Assay [11] addresses Integrin alpha-5/beta-1 (Homo sapiens, UniProt P05556+P08648). The assay can be described thus: Antagonist activity at alpha5beta1 integrin receptor (unknown origin) by cell-free ELISA. It counts as protein-complex assay.

Sequence of Integrin alpha-V/beta-1 (P05556 21-798 limits assumed): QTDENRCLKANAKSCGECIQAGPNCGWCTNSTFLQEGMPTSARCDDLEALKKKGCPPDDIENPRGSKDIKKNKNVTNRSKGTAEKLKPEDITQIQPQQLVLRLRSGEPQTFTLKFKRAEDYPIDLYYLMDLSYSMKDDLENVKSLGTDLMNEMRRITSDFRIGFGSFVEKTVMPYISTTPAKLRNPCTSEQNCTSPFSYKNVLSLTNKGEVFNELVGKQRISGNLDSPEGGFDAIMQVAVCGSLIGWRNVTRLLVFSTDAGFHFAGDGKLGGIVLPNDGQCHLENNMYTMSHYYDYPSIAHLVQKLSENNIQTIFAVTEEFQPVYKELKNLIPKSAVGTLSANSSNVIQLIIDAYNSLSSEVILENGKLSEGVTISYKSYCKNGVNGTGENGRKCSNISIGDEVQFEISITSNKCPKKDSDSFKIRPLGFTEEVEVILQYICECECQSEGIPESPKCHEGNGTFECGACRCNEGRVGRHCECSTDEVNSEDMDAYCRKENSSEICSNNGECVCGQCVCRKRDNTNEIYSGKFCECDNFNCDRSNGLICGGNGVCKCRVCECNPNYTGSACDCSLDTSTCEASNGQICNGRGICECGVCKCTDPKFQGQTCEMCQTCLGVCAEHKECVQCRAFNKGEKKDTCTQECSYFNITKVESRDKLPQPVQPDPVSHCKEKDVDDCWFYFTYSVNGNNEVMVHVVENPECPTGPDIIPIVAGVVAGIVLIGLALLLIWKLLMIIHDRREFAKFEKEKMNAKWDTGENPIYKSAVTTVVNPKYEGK
Sequence of Integrin alpha-V/beta-1 (P06756 31-889 limits assumed): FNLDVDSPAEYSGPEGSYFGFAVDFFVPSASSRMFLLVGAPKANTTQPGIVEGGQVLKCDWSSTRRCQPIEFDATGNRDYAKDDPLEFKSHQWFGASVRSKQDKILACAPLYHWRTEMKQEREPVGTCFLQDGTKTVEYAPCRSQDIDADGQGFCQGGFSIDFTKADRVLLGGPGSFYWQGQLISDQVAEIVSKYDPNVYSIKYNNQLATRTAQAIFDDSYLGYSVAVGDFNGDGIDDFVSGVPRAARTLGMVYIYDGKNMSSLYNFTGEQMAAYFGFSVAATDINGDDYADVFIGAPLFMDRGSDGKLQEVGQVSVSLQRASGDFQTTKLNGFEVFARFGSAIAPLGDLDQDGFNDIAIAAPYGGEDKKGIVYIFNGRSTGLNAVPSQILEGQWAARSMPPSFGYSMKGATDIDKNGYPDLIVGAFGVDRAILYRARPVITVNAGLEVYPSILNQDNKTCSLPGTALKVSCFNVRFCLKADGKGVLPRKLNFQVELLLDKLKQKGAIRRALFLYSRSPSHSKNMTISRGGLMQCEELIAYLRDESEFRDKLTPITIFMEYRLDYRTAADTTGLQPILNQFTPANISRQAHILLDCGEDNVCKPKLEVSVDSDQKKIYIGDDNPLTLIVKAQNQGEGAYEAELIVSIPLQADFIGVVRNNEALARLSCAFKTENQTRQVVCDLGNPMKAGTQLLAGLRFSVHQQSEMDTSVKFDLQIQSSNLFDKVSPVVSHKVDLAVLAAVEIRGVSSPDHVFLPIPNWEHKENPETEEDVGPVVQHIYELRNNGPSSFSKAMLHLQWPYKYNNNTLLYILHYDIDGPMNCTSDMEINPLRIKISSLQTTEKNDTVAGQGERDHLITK
Sequence of Integrin alpha-V/beta-1 (P06756 891-1048 limits assumed): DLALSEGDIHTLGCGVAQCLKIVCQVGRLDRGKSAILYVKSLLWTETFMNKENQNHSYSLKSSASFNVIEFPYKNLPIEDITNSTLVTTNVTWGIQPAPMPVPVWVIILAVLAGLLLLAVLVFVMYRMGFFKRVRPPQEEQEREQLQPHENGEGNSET
T1 sequence (P06756 31-889 limits assumed): as the sequence (P06756 31-889 limits assumed) above
T1 sequence (P06756 891-1048 limits assumed): as the sequence (P06756 891-1048 limits assumed) above
T1 sequence (P18084 24-799 limits assumed): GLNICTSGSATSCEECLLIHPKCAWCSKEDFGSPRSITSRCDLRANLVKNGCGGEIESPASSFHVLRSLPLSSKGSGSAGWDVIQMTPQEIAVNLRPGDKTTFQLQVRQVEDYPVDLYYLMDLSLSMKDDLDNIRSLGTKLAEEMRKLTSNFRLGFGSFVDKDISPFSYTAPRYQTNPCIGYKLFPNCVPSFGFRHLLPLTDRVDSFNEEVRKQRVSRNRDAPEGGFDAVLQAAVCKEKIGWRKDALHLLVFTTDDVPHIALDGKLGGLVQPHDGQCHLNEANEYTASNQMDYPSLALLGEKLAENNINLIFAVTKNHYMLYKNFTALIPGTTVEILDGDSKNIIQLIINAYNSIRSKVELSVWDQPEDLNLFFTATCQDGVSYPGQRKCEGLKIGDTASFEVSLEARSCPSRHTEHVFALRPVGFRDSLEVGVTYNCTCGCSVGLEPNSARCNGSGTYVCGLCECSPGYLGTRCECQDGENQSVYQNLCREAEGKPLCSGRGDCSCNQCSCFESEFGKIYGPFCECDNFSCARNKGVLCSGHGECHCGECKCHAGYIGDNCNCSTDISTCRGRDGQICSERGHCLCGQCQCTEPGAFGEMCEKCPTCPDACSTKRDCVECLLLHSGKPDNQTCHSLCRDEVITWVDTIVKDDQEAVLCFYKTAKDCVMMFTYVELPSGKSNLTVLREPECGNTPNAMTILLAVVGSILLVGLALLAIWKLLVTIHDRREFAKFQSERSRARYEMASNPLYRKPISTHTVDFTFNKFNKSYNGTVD
Sequence of Integrin alpha-V/beta-8 (P06756 31-889 limits assumed): as the sequence (P06756 31-889 limits assumed) above
Sequence of Integrin alpha-V/beta-8 (P06756 891-1048 limits assumed): as the sequence (P06756 891-1048 limits assumed) above
Sequence of Integrin alpha-V/beta-8 (P26012 43-769 limits assumed): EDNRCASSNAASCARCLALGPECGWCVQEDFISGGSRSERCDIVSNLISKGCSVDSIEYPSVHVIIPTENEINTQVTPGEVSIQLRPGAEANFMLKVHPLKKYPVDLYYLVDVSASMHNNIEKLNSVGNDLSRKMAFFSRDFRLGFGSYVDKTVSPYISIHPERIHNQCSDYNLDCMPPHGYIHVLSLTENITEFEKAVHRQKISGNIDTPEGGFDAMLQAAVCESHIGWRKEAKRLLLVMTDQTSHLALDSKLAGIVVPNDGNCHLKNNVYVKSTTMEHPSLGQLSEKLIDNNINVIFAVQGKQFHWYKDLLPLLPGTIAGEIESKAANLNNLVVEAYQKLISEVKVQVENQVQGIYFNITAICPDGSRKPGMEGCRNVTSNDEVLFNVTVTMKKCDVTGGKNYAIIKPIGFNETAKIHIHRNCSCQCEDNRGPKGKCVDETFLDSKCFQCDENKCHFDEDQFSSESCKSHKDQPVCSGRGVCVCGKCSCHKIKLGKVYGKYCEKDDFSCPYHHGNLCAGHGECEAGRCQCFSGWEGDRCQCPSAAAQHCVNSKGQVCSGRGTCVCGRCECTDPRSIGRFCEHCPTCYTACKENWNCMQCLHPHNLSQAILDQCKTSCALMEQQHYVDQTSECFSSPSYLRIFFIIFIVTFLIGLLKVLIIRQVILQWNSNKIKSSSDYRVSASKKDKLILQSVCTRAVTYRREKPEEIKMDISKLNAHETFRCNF
Sequence of Integrin alpha-5/beta-1 (P05556 21-798 limits assumed): as the sequence (P05556 21-798 limits assumed) above
Sequence of Integrin alpha-5/beta-1 (P08648 42-894 limits assumed): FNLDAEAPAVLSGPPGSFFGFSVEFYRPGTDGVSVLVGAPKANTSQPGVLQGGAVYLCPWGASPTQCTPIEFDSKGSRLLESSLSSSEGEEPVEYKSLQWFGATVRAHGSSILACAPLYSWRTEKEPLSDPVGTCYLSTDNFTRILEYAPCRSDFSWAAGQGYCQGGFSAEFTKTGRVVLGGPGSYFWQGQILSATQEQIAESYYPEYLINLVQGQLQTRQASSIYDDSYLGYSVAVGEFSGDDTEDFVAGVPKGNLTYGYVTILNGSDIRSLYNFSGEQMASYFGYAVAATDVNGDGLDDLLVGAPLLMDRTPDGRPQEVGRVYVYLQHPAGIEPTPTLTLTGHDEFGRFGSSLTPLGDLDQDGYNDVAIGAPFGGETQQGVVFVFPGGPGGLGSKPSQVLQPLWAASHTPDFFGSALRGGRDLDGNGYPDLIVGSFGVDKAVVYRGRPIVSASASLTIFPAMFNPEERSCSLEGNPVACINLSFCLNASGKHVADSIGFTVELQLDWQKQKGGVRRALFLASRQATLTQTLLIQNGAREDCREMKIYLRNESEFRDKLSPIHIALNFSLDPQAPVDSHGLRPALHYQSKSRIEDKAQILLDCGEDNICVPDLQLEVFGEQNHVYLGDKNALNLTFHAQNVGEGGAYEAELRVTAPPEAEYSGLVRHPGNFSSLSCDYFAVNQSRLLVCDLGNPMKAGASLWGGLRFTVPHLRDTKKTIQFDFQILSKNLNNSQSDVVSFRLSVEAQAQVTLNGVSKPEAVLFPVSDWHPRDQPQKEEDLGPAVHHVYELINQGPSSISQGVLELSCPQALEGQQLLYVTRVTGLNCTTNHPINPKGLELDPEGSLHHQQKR
Sequence of Integrin alpha-5/beta-1 (P08648 895-1049 limits assumed): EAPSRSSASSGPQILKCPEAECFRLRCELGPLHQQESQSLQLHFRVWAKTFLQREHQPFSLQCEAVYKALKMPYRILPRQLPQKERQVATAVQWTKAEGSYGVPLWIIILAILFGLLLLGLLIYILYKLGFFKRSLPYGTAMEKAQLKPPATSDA

One may read the IC50 as the concentration that inhibits the measured activity by half. In the case of `CC(C)(C)c1cc(Br)cc([C@H](CC(=O)O)NC(=O)CNC(=O)c2cc(O)cc(NC3=NCC(O)CN3)c2)c1` (some centres undefined), the IC50 was more than 5000 nM in assay [1]; 1.8 nM in [2]; more than 5000 nM in assay [3]; 0.2 nM in [4]; more than 5000 nM in [5]; 61 nM in assay [6].

As for `COc1ccc(S(=O)(=O)N[C@@H](CNc2nc(C)nc(N3CCC(c4ccc5c(n4)NCCC5)CC3)c2C)C(=O)O)cc1` [GLPG-0187], the concentration for half-maximal inhibition (IC50) was more than 10000 nM in assay [1]; 1.3 nM in [2]; 2 nM in [7]; 1.4 nM in [8]; 3.7 nM in assay [9]; 1.2 nM in [4]. Further, the IC50 is more than 10000 nM in assay [10] and 7.7 nM in assay [11].
